The text below walks through data of publication PMC7297817, “Pharmacological Characterization of a Betaine/GABA Transporter 1 (BGT1) Inhibitor Displaying an Unusual Biphasic Inhibition Profile and Anti-seizure Effects” (Neurochemical Research, 2020).

“Also recorded” adds a separate entry of the source. Read-outs that look alike come from different tables or passages of the source.

One test addresses T1, hBGT1 (Homo sapiens, UniProt P48065).
T1 construct: expressed in transfected cells; host or cells: tsA201 (transient)
T1 sequence (P48065 1-614): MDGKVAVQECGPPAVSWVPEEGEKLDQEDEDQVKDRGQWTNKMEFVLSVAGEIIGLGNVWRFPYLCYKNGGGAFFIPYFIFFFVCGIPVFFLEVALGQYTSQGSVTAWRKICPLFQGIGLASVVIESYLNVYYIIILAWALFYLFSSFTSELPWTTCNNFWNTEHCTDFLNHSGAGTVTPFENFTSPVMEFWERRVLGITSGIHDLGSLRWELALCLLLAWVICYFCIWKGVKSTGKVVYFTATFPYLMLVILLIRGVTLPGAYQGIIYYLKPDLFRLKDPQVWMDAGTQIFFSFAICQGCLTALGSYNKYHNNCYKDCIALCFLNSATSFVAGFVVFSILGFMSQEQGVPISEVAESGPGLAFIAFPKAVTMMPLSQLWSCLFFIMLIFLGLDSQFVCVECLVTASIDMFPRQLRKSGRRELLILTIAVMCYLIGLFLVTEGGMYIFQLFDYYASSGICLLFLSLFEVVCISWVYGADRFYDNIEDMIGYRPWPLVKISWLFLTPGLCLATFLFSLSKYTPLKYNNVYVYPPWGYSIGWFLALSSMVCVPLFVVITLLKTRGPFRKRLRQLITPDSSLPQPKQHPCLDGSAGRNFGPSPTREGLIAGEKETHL
The test is described as follows: [3H]GABA uptake at hBGT1 transiently expressed in tsA201 cells. The test is classed as cell-based. The conditions noted are these: for inhibition profile (mono-/biphasic) / IC50: 30 nM [3H]GABA, 3 min; for inhibition profile (mono-/biphasic): F test; for Frac: proportion of maximal response due to the more potent phase; for preferred curve fitting: in the presence of 10 μM ATP. On the procedure: The tsA201 cell line was used for transient expression while the MDCK II cell line express BGT1 endogenously. Both cell lines were cultured as described. tsA201 cells were transfected with DNA constructs (8 μg per 10 cm dish if not otherwise mentioned) using 40 μL PolyFect transfection reagent according to the manufacturer’s protocol (Qiagen, Venlo, Netherlands). The DNA constructs encoding hBGT1, hGAT1-3 [36], the mutated constructs hBGT1 Q299 and hGAT3 L314Q described previously, and hBGT Y453A were synthesized and sequence validated by Genscript (NJ, USA).
The [^3H]GABA competition uptake assay was performed as previously described. […] Studies related to the inhibition curves with GABA and BPDBA at hBGT1 were obtained both with and without the presence of 10 μM ATP during the [^3H]GABA uptake assay.
All compounds, except BAPTA/AM, were also present at the same concentration during the course of the actual [^3H]GABA uptake assay.
The [^3H]GABA uptake data was normalized to the percentage of total uptake in the individual experiments in the presence of the lowest compound concentration or no compound present. Data presented is the pooled data of at least three independent experiments with three technical replicates. Concentration–response curves (CRCs) were fitted with GraphPad Prism (version 8.2.1, Yosemite, GraphPad Software, San Diego, CA, USA) by non-linear regression to the sigmoidal concentration response model: Y=Bottom+(Top-Bottom)/1+10^LogIC50-X∗nH where Top is the Top plateau, Bottom is the Bottom plateau, X is the logarithm of the concentration of the compound, LogIC50 is the concentration giving a response halfway between Top and Bottom,and nH is the Hill slope.
The best fit for CRCs obtained with the [^3H]GABA uptake assay was identified by the extra-sum-of-squares F test (for convenience referred to as F test).

The test system of test [1] is 74 different neuroreceptors and ion channels. The settings on record: adrenergic, GABAergic and dopaminergic receptors included; cited from earlier work.
Test [2] concerns tsA201 cells transiently expressing hBGT1. As to the kind of experiment: Fluo-4 Ca2+-assay in tsA201 cells transiently expressing hBGT1. The test is classed as cell-based, human. The settings on record: within the 3 min timeframe; blocked by BAPTA/AM. Here is the method: Emission was recorded for 20 s. before adding the compounds (at 4 × concentrations) to the HBSS-HEPES buffer to determine the baseline. […] Data presented is the pooled data of at least three independent experiments with three technical replicates. Changes in fluorescence units (ΔFU) were determined as the maximum fluorescent signal within the 190 s minus the average of the baseline.

Setting [3] is: biphasic fit, tsA201, 8 μg cDNA, read-out: IC50, low affinity component (high IC50).
Where [4] appears, read: monophasic fit (biphasic n.s.), read-out: IC50.
[5] abbreviates: read-out: IC50, low affinity component (high IC50), biphasic fit, tsA201, 8 μg cDNA.

`Cc1ccsc1C(CCCN(C)[C@@H]1CCCc2onc(O)c21)c1sccc1C` [(R)-EF1502, (R)-4-((4,4-bis(3-methylthiophen-2-yl)butyl)(methyl)amino)-4,5,6,7-tetrahydrobenzo[d]isoxazol-3-ol, reference compound]: on hBGT1, the “inhibition profile (mono-/biphasic)” value is listed as “biphasic CRC”. Besides, the nH1 entry on hBGT1 (Hill slope of first phase, 8 μg cDNA) is listed as “–0.79”. The nH2 result at hBGT1 (Hill slope of second phase, 8 μg cDNA) is given as “–2.35”. The IC50 is 190 µM on hBGT1 (setting [3]) and 2.45 µM at hBGT1 (biphasic fit, tsA201, 8 μg cDNA, read-out: pIC50 ± S.E.M., high affinity component (converted)). At hBGT1 (8 μg cDNA), this compound yielded a Frac of 0.30.

On to `COc1ccccc1C1(O)CCN(CCCn2c3ccccc3c3ccccc32)CC1` [NNC 05-2090, 1-[3-(9H-Carbazol-9-yl)propyl]-4-(2-methoxyphenyl)-4-piperidinol, reference compound], for which the “inhibition profile (mono-/biphasic)” value on hBGT1 is on record as “did not inhibit hBGT1 in a biphasic manner”. Moreover, the IC50 on hBGT1 (setting [4]) worked out at 117 µM.

For the compound `Cc1ccsc1C(=CCCN(C)[C@@H]1CCCC[C@@H]1C(=O)O)c1sccc1C` [(1S,2R)-5a, (1S,2R)-2-((4,4-bis(3-methylthiophen-2-yl)but-3-en-1-yl)(methyl)amino)cyclohexane-1-carboxylic acid], the IC50 was found to be 4.7 µM against hBGT1 (IC50, high affinity component (low IC50), biphasic fit, tsA201, 8 μg cDNA) and 370 µM on hBGT1 (setting [5]). The compound further displayed a Frac at hBGT1 (8 μg cDNA) of 0.28.

In the case of `O=C(NC1CCN(Cc2ccccc2)CC1)c1ccc(Cl)cc1Cl` [BPDBA, N-(1-benzyl-4-piperidinyl)-2,4-dichlorobenzamide, reference compound], at hBGT1, the “inhibition profile (mono-/biphasic)” value is on record as “monophasic; also recorded: did not inhibit hBGT1 in a biphasic manner” and the preferred curve fitting entry was “monophasic fit”. Besides, the IC50 on hBGT1 (setting [4]) came to 14.8 µM. Further, the IC50 on hBGT1 (monophasic fit (biphasic n.s.), read-out: pIC50 ± S.E.M. (converted)) was 15.1 µM.

On to `NCCCC(=O)O` [GABA, γ-Aminobutyric acid], for which, at hBGT1, the “inhibition profile (mono-/biphasic)” value is reported as “monophasic” and the preferred curve fitting result is “monophasic fit”.

In the case of `CN(CCC=C1c2ccccc2CCc2ccccc21)[C@@H]1CCCC[C@@H]1C(=O)O` [(1R,2S)-5c, (1S,2R)-2-((3-(10,11-dihydro-5H-dibenzo[a,d][7]annulen-5-ylidene)propyl)(methyl)amino)cyclohexane-1-carboxylic acid], the IC50 on hBGT1 (biphasic fit, tsA201, 8 μg cDNA, read-out: IC50, high affinity component (low IC50)) stood at 11.2 µM; on hBGT1 (setting [3]), 819 µM. Moreover, at hBGT1 (8 μg cDNA), the Frac turned out to be 0.26.

As for “N-[4,4-bis(3-methyl-2-thienyl)-3-butenyl]-3-hydroxy-4-(methylamino)-4,5,6,7-tetrahydrobenzo[d]isoxazol-3-ol [EF1502]”, the “activity at a broad range of neurotransmitter systems” value in test [1] is listed as “completely devoid of any activity”.

Regarding `Cc1ccsc1C(=CCCN(C)[C@@H]1CCCC[C@H]1C(=O)O)c1sccc1C` [(1R,2R)-4a, (1R,2R)-2-((4,4-bis(3-methylthiophen-2-yl)but-3-en-1-yl)(methyl)amino)cyclohexane-1-carboxylic acid], the IC50 came out at 3.39 µM on hBGT1 (pIC50 ± S.E.M., high affinity component, biphasic fit, tsA201, 8 μg cDNA) and 566 µM at hBGT1 (setting [5]). The compound further came in with a Frac at hBGT1 (8 μg cDNA) of 0.19.

As for `Nc1ncnc2c1ncn2[C@@H]1O[C@H](COP(=O)(O)OP(=O)(O)OP(=O)(O)O)[C@@H](O)[C@H]1O` [ATP, adenosine 5′-triphosphate, reference compound], the “intracellular Ca2+ increase” value in test [2] is recorded as “induced a Ca^2+ increase”. Moreover, the “decrease of total [3H]GABA uptake” value on hBGT1 (ATP present during uptake (10 μM per methods)) is 9%.
